The values that follow come from patent US20250197485A1, “Anti-ED-A Antibodies for the Treatment of Pulmonary Hypertension” (Universitätsklinikum Jena, priority 2022, published 2025).

Assay [1] concerns MCT-induced PH. As to the kind of experiment: Histological evaluation of lung tissue damage (sum-score) in mouse model of MCT-induced PH. It is filed as in vivo, C57BL/6 mice. Conditions: MAC p=0.020; F8 IgG p=0.005; KSF IgG p=0.907. The text has this:
PH was induced in C57BL/6 mice (bodyweight: 25-30 g). The animals were obtained from ZET facility (Zentale Experimentelle Tierhaltung) of the University Hospital Jena (UKJ, Jena, Germany). Prior to PH induction, mice were allowed to acclimatize for at least 7 days with ad libitum access to food and water as well as controlled light/dark cycles. 41 animals were investigated divided into the following five experimental groups: • 1) sham induced controls (n=7) • 2) MCT induced PH (n=12) • 3) MCT induced PH+MAC (n=6) • 4) MCT induced PH+F8 IgG (n=8) • 5) MCT induced PH+KSF IgG (n=8) For PH induction, the Monocrotaline (MCT, Carl Roth, Germany) method was used. The sham induced controls were injected with 30 μl NaCl not containing MCT at day 1 (single dose; intraperitoneally, i.p.). […] The other 4 experimental groups were injected with MCT to induce PH (single dose; intraperitoneally, i.p.; 60 mg/kg body weight; volume 30 μl). Animals in the MCT induced PH+MAC group received the drug (Macitentan, Actelion Pharmaceuticals Ltd.) from day 14 to day 28 (once daily; per os; 15 mg/kg body weight). Animals in the MCT induced PH+F8 IgG group received F8 IgG 3 times on day 14, 16 and 18 (intravenously, i.v.; 195 μg/injection; volume 200 μl). Similarly, animals in the MCT induced PH+KSF IgG group received KSF IgG 3 times on day 14, 16 and 18 (intravenously, i.v.; 195 μg/injection; volume 120 μl). Microscopic evaluation to assess histopathological lung tissue damage was performed using H&E as well as Sirius Red stained lung tissue sections according to a defined sum-score (between 0 and 12; maximum score value=highest level of tissue damage) integrating certain histological alterations frequently occurring in PH: percentage of atelectasis area, percentage of emphysema area, degree of media hypertrophy of peribronchial arteries, presence of perivascular cellular edema of peribronchial arteries, and degree of media hypertrophy of small arteries. Statistical analyses were performed using IBM SPSS statistical software, version 28.0 (IBM SPSS Statistics for Windows. Armonk, NY, USA). Data are expressed as mean±standard deviation. Kruskal-Wallis and Mann-Whitney-U test were used to test for significant differences between the different groups. A p-value<0.05 as statistically significant.

Assay [2] has as its system MCT-induced PH. Kind of assay: Right heart catheterization (RVPsys) in mouse model of MCT-induced PH. It is filed as in vivo, C57BL/6 mice. Particulars: day 28; F8 IgG 195 μg i.v. day 14, 16, 18 (p=0.010); MAC 15 mg/kg per os once daily day 14-28 (n.s.). From the text:
PH was induced in C57BL/6 mice (bodyweight: 25-30 g). The animals were obtained from ZET facility (Zentale Experimentelle Tierhaltung) of the University Hospital Jena (UKJ, Jena, Germany). Prior to PH induction, mice were allowed to acclimatize for at least 7 days with ad libitum access to food and water as well as controlled light/dark cycles. 41 animals were investigated divided into the following five experimental groups: • 1) sham induced controls (n=7) • 2) MCT induced PH (n=12) • 3) MCT induced PH+MAC (n=6) • 4) MCT induced PH+F8 IgG (n=8) • 5) MCT induced PH+KSF IgG (n=8)
For PH induction, the Monocrotaline (MCT, Carl Roth, Germany) method was used.
The sham induced controls were injected with 30 μl NaCl not containing MCT at day 1 (single dose; intraperitoneally, i.p.). […] The other 4 experimental groups were injected with MCT to induce PH (single dose; intraperitoneally, i.p.; 60 mg/kg body weight; volume 30 μl). Animals in the MCT induced PH+MAC group received the drug (Macitentan, Actelion Pharmaceuticals Ltd.) from day 14 to day 28 (once daily; per os; 15 mg/kg body weight). Animals in the MCT induced PH+F8 IgG group received F8 IgG 3 times on day 14, 16 and 18 (intravenously, i.v.; 195 μg/injection; volume 200 μl). Similarly, animals in the MCT induced PH+KSF IgG group received KSF IgG 3 times on day 14, 16 and 18 (intravenously, i.v.; 195 μg/injection; volume 120 μl).
On day 28 after MCT injection, mice of all experimental groups were deeply anesthetized with a single dose of 100 mg/kg body weight ketamine and 10 mg/kg body weight Xylazin in approximately 60 μl each administered i.p.
Right heart catheterization using a 1.4 F micro conductance pressure-volume catheter (Model SPR-839; Millar Instruments Inc; PowerLab system, ADInstruments Ltd., Oxford, UK) was performed via the right vena jugularis interna to measure the systolic right ventricular pressure and thereby verify the success of the experimental setting. Mice were then sacrificed in deep anesthesia and analgesia to carry out cardiac blood collection after thoracotomy and to harvest the organs.
Statistical analyses were performed using IBM SPSS statistical software, version 28.0 (IBM SPSS Statistics for Windows. Armonk, NY, USA). Data are expressed as mean±standard deviation. Kruskal-Wallis and Mann-Whitney-U test were used to test for significant differences between the different groups. A p-value<0.05 as statistically significant.

For “KSF IgG: Negative control chimaeric antibody specific for hen egg lysozyme, an irrelevant antigen; heavy chain SEQ ID NO: 15, light chain SEQ ID NO: 16 [reference compound]”, the “histopathological lung tissue damage (sum-score 0 to 12) compared to the MCT-induced PH group without treatment” value in assay [1] is given as “No reduction”. Turning to `CCCNS(=O)(=O)Nc1ncnc(OCCOc2ncc(Br)cn2)c1-c1ccc(Br)cc1` [MAC, Macitentan, reference compound], in assay [2], the “attenuation in RVPsys compared to the MCT-induced PH group without treatment (positive control)” value was “not significant”. Besides, the “histopathological lung tissue damage (sum-score 0 to 12) compared to the MCT-induced PH group without treatment” value in assay [1] was “significantly reduced”.
